From patent US11453647B2, “Benzimidazole derivatives as adenosine receptor antagonists” (Merck Patent GmbH, priority 2017, dated 2022)

Columns and labels:
Assay type in all cases: cell-based
human A1 receptor = biological target: T1, human A1 receptor (Homo sapiens, UniProt P30542); assay: functional cAMP (HTRF) assay, recombinant CHO cells expressing human A1 receptor, forskolin, agonist CPA
T1 construct: expressed in transfected cells; host or cells: CHO
T1 sequence (P30542 1-326): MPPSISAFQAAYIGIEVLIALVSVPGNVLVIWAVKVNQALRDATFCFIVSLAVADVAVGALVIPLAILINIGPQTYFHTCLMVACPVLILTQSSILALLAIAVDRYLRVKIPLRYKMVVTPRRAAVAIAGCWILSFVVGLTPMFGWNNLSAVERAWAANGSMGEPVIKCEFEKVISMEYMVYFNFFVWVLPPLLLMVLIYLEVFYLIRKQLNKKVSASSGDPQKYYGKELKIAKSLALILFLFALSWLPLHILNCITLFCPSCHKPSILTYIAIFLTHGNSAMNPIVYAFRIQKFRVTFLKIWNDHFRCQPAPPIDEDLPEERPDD
Procedure, shortened: (§1)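 Recombinant CHO lines carrying either receptor receive forskolin, compound and the matching agonist, CPA or IB-MECA. After 30 min, HTRF reagents are added and cAMP is quantified. Values are normalized to inhibitor and neutral DMSO controls, then fitted.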

human A2A receptor = biological target: T2, human A2A receptor (Homo sapiens, UniProt P29274); assay: functional cAMP (HTRF) assay, recombinant HEK293 cells expressing human A2A receptor, agonist NECA
T2 construct: expressed in transfected cells; host or cells: HEK293

human A3 receptor = biological target: T3, human A3 receptor (Homo sapiens, UniProt P0DMS8); assay: functional cAMP (HTRF) assay, recombinant CHO cells expressing human A3 receptor, forskolin, agonist IB-MECA
T3 construct: expressed in transfected cells; host or cells: CHO
T3 sequence (P0DMS8 1-318): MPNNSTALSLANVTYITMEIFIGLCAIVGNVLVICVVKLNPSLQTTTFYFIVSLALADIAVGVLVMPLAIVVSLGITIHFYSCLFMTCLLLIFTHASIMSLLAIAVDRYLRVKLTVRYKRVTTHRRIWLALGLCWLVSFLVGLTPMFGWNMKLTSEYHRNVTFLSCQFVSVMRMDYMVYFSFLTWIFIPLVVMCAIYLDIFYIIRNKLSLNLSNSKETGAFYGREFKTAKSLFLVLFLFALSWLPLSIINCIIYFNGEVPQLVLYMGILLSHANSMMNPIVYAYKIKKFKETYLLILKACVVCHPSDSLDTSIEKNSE
Procedure, shortened: as §1

A2B receptors = biological target: T4, A2B receptors (Homo sapiens, UniProt P29275); assay: functional cAMP (HTRF) assay, recombinant HEK293 cells expressing human A2B receptor, agonist NECA; set-up: expressed in transfected cells; host or cells: HEK293
T4 sequence (P29275 1-332): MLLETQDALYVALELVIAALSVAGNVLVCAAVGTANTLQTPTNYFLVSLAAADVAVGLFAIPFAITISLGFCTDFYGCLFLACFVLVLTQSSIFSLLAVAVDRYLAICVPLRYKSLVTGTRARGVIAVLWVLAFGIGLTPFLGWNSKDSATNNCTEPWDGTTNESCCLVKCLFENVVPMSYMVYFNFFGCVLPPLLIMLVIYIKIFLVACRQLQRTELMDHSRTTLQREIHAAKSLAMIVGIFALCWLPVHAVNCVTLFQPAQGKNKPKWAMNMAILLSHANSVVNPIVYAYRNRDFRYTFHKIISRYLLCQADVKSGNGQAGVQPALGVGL

T2 sequence (P29274 whole entry): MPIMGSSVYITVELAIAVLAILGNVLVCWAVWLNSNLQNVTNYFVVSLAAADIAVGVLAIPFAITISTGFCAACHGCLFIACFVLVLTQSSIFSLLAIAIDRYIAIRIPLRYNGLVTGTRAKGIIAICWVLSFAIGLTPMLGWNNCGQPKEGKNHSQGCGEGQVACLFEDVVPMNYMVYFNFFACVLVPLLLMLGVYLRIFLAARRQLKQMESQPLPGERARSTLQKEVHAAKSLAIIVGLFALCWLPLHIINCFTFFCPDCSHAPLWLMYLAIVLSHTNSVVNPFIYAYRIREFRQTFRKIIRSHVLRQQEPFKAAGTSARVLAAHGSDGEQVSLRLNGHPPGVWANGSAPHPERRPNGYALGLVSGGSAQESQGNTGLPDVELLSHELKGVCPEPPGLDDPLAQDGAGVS

Row | Structure (SMILES) | IC50 (human A1 receptor) [nM] | IC50 (human A2A receptor) [nM] | IC50 (human A3 receptor) [nM] | IC50 (A2B receptors) [nM]
1 | COc1ccc(C2CCOCC2)c2nc(NC(=O)c3ccc(CN(C)C)cc3)[nH]c12 [compound 88, 4-[(dimethylamino)methyl]-N-[7-methoxy-4-(oxan-4-yl)-1H-1,3-benzodiazol-2-yl]benzamide] | > 1000 | < 10 | > 1000 | > 1000
2 | COc1ccc(-c2cnn(C)c2)c2nc(NC(=O)c3ccnc(Br)c3)[nH]c12 [compound 95, 2-bromo-N-[7-methoxy-4-(1-methyl-1H-pyrazol-4-yl)-1H-1,3-benzodiazol-2-yl]pyridine-4-carboxamide] | < 1000 | < 10 | < 10 | < 1000
3 | COc1ccc(-c2cnn(C)c2)c2nc(NC(=O)c3ccc4ocnc4c3)[nH]c12 [compound 98, N-[7-methoxy-4-(1-methyl-1H-pyrazol-4-yl)-1H-1,3-benzodiazol-2-yl]-1,3-benzoxazole-5-carboxamide] | > 1000 | < 100 | < 1000 | < 1000
4 | COc1ccc(N2CCOCC2)c2nc(NC(=O)c3ccc(O)c(N)c3)[nH]c12 [compound 99, 3-amino-4-hydroxy-N-[7-methoxy-4-(morpholin-4-yl)-1H-1,3-benzodiazol-2-yl]benzamide] | > 1000 | < 10 | > 1000 | > 1000
5 | COc1ccc(-c2cnn(C)c2)c2nc(NC(=O)c3ccc4c(c3)CCO4)[nH]c12 [compound 101, N-[7-methoxy-4-(1-methyl-1H-pyrazol-4-yl)-1H-1,3-benzodiazol-2-yl]-2,3-dihydro-l-benzofuran-5-carboxamide] | < 1000 | < 10 | < 1000 | < 1000
6 | C#CCC1(O)CCN(C(=O)Nc2nc3c(C4CCOCC4)ccc(OC)c3[nH]2)CC1 [compound 102, 4-hydroxy-N-[7-methoxy-4-(oxan-4-yl)-1H-1,3-benzodiazol-2-yl]-4-(prop-2-yn-1-yl)piperidine-1-carboxamide] | > 1000 | < 10 | > 1000 | > 1000
7 | COc1ccc(C2CCOCC2)c2nc(NC(=O)N3CCC(O)(Cc4ccccc4)CC3)[nH]c12 [compound 103, 4-benzyl-4-hydroxy-N-[7-methoxy-4-(oxan-4-yl)-1H-1,3-benzodiazol-2-yl]piperidine-1-carboxamide] | < 1000 | < 10 | > 1000 | < 1000
8 | COc1ccc(-c2cnn(C)c2)c2nc(NC(=O)c3ccnc(N4CC[C@](C)(O)C4)c3)[nH]c12 [compound 104, 2-[(3S)-3-hydroxy-3-methylpyrrolidin-1-yl]-N-[7-methoxy-4-(1-methyl-1H-pyrazol-4-yl)-1H-1,3-benzodiazol-2-yl]pyridine-4-carboxamide] | > 1000 | < 10 | < 1000 | > 1000
9 | COc1ccc(-c2cnn(C)c2)c2nc(NC(=O)c3ccnc(N4CCC(C)(O)CC4)c3)[nH]c12 [compound 105] | > 1000 | < 10 | < 1000 | < 1000
10 | COc1ccc(-c2cnn(C)c2)c2nc(NC(=O)c3ccnc(N4CCC5(CCOC5)C4)c3)[nH]c12 (stereo not shown) [compound 106, N-[7-methoxy-4-(1-methyl-1H-pyrazol-4-yl)-1H-1,3-benzodiazol-2-yl]-2-{2-oxa-7-azaspiro[4.4]nonan-7-yl}pyridine-4-carboxamide] | > 1000 | < 10 | < 1000 | > 1000
11 | COc1ccc(C2CCOCC2)c2nc(NC(=O)c3ccc4c(c3)CCO4)[nH]c12 [compound 108, N-[7-methoxy-4-(oxan-4-yl)-1H-1,3-benzodiazol-2-yl]-2,3-dihydro-1-benzofuran-5-carboxamide] | > 1000 | < 10 | < 1000 | < 1000
12 | COc1ccc(C2CCOCC2)c2nc(NC(=O)c3ccnc(N4CCC5(CCOC5)C4)c3)[nH]c12 (stereo not shown) [compound 119, N-[7-methoxy-4-(oxan-4-yl)-1H-1,3-benzodiazol-2-yl]-2-{2-oxa-7-azaspiro[4.4]nonan-7-yl}pyridine-4-carboxamide] | > 1000 | < 10 | > 1000 | > 1000
13 | COc1ccc(C2CCOCC2)c2nc(NC(=O)c3ccnc(N4CCC(C)(O)C4)c3)[nH]c12 (stereo not shown) [compound 122, 2-(3-hydroxy-3-methylpyrrolidin-1-yl)-N-[7-methoxy-4-(oxan-4-yl)-1H-1,3-benzodiazol-2-yl]pyridine-4-carboxamide] | > 1000 | < 10 | > 1000 | > 1000
14 | COCCC1CCN(C(=O)Nc2nc3c(-c4cnn(C)c4)ccc(OC)c3[nH]2)C1 (stereo not shown) [compound 134, N-[7-methoxy-4-(1-methyl-1H-pyrazol-4-yl)-1H-1,3-benzodiazol-2-yl]-3-(2-methoxyethyl)pyrrolidine-1-carboxamide] | > 1000 | < 100 | > 1000 | < 1000
15 | COc1ccc(-c2ccc(F)cc2)c2nc(NC(=O)N3CCC(C)(O)CC3)[nH]c12 [compound 144, N-[4-(4-fluorophenyl)-7-methoxy-1H-1,3-benzodiazol-2-yl]-4-hydroxy-4-methylpiperidine-1-carboxamide] | < 1000 | < 10 | > 1000 | < 1000
16 | COc1ccc(-c2cnn(C3CCN(C(=O)OC(C)(C)C)CC3)c2)c2[nH]c(NC(=O)N3CCC(C)(O)CC3)nc12 [compound 145, tert-butyl 4-(4-{2-[(4-hydroxy-4-methylpiperidine-1-carbonyl)amino]-4-methoxy-1H-1,3-benzodiazol-7-yl}-1H-pyrazol-1-yl)piperidine-1-carboxylate] | > 1000 | < 10 | > 1000 | > 1000
17 | COc1ccc(C2CCOCC2)c2nc(NC(=O)N3CC[C@@]4(CCOC4)C3)[nH]c12 [compound 150, (5R)-N-[7-methoxy-4-(oxan-4-yl)-1H-1,3-benzodiazol-2-yl]-2-oxa-7-azaspiro[4.4]nonane-7-carboxamide] | > 1000 | < 10 | > 1000 | > 1000
18 | COc1ccc(-c2cnn(CCC(C)C)c2)c2nc(NC(=O)N3CCC(C)(O)CC3)[nH]c12 [compound 151, 4-hydroxy-N-{7-methoxy-4-[1-(3-methylbutyl)-1H-pyrazol-4-yl]-1H-1,3-benzodiazol-2-yl}-4-methylpiperidine-1-carboxamide] | < 1000 | < 10 | > 1000 | > 1000
19 | COc1ccc(-c2cnn(C)c2)c2nc(NC(=O)c3ccc(CN4CCOCC4)cc3)[nH]c12 [compound 152, N-[7-methoxy-4-(1-methyl-1H-pyrazol-4-yl)-1H-1,3-benzodiazol-2-yl]-4-[(morpholin-4-yl)methyl]benzamide] | > 1000 | < 100 | < 1000 | < 1000
20 | COc1ccc(C2CCOCC2)c2nc(NC(=O)c3ccnc(N4CC[C@@]5(CCOC5)C4)c3)[nH]c12 [compound 153, N-[7-methoxy-4-(oxan-4-yl)-1H-1,3-benzodiazol-2-yl]-2-[(5R)-2-oxa-7-azaspiro[4.4]nonan-7-yl]pyridine-4-carboxamide] | > 1000 | < 10 | > 1000 | > 1000
21 | COc1ccc(C2CCOCC2)c2nc(NC(=O)c3ccnc(N4CC[C@]5(CCOC5)C4)c3)[nH]c12 [compound 154, N-[7-methoxy-4-(oxan-4-yl)-1H-1,3-benzodiazol-2-yl]-2-[(5S)-2-oxa-7-azaspiro[4.4]nonan-7-yl]pyridine-4-carboxamide] | > 1000 | < 10 | < 1000 | > 1000
22 | COc1ccc(-c2cnn(C)c2)c2[nH]c(NC(=O)c3cnn(C)c3)nc12 [compound 160, N-[7-methoxy-4-(1-methyl-1H-pyrazol-4-yl)-1H-1,3-benzodiazol-2-yl]-1-methyl-1H-pyrazole-4-carboxamide] | > 1000 | < 10 | < 100 | < 100
